Test results published in article PMC7649837, “Protein–fragment complex structures derived by NMR molecular replacement” (RSC Medicinal Chemistry, 2020).

target: PIN1 (Homo sapiens, UniProt Q13526); experiment: NMR methyl chemical shift perturbation titration; intermolecular NOEs and NMR2 complex structure; type: binding
Sequence (Q13526 whole entry): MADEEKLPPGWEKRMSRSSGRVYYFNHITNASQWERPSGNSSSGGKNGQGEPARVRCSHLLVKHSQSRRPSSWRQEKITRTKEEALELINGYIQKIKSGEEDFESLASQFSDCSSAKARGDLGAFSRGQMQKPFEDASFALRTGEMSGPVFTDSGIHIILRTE

SMILES	Kd [µM]
Cc1cccc(-c2nc(C(=O)O)c(C)[nH]2)c1 [compound 1]	260
Cc1nc(-c2cccc(Cl)c2)[nH]c1C(=O)O [compound 2]	670
Cc1nc(-c2cccc(C(F)(F)F)c2)[nH]c1C(=O)O [compound 3]	6700
